Assay results reported in US20200407398A1, “Short Proline-Rich Lipopeptide Potentiates Minocycline and Rifampicin Against Multidrug-and Extensively Drug-Resistant Pseudomonas Aeruginosa” (priority 2018, published 2020).
Square brackets hold non-standard residues; d marks the D form. Peptide text beside a SMILES is read from it. * marks the point of attachment. Lauroyl = CCCCCCCCCCCC(=O)*

Experiments:
[1] = tested on: P. aeruginosa PAO1 (wild-type); assay: microbe, parasite or virus in culture
Description: (§1) We evaluated the activity of SPRLPs in combination with fifteen clinically-used antibiotics against P. aeruginosa. Antibiotics tested included fluoroquinolones (moxifloxacin, ciprofloxacin and levofloxacin), aminoglycosides (gentamicin, tobramycin and amikacin), cephalosporins (ceftazidime and cefotaxime), carbapenems (meropenem and doripenem), aztreonam, rifampicin, minocycline, colistin and fosfomycin. The SPRLPs were screened initially at a fixed concentration of 8 μg/mL (5 μM) in combination with antibiotics against wild-type P. aeruginosa PAO1. We assessed potentiation by at least a four-fold absolute MIC reduction of the antibiotic, after which synergism was further validated by a conventional checkerboard assay. A fractional inhibitory concentration (FIC) index of ≤0.5, 0.5<x≤4 or >4 was interpreted as synergistic, indifferent or antagonistic interaction, respectively (31). FIC index was obtained by adding the FIC values of the antibiotic and the SPRLP adjuvant. FIC of antibiotics was calculated by dividing the MIC of the antibiotic in the presence of the adjuvant by the MIC of the antibiotic alone. Similarly, the FIC of adjuvant was calculated via dividing the MIC of the adjuvant in the presence of the antibiotic by the MIC of the adjuvant alone.
(§2) Microbroth dilution susceptibility test following the Clinical and Laboratory Standards Institute (CLSI) guidelines (32) was performed to assess the in vitro antibacterial activity of SPRLPs. Overnight grown bacterial cultures were diluted in saline to achieve a 0.5 McFarland turbidity, followed by 1:50 dilution in Mueller-Hinton broth (MHB) for inoculation to a final concentration of 5×10^5 colony forming units/mL. The assay was done on a 96-well plate to which the agents of interest were 2-fold serially diluted in MHB and incubated with equal volumes of inoculum at 37° C. for 18 hours. MIC was determined as the lowest concentration to inhibit visible bacterial growth in form of turbidity, which was confirmed using EMax Plus microplate reader (Molecular Devices, USA) at a wavelength of 590 nm. The well containing MHB broth with or without bacterial cells was used as positive or negative control, respectively.
(§3) The assay was performed on a 96-well plate, to which the agents of interest was 2-fold serially diluted in working MHB. Prior to serial dilution, SPRLP was added to the working MHB media so that a fixed final concentration of 8 μg/mL (5 μM) SPRLP per well was achieved. To ensure that the assay was working, the MIC determination test of the studied antibiotic (without SPRLP) was included on the same plate. Similar MIC results between the assay comparator and an independent MIC determination test (on a different plate) ensured validity of the synergy test. Overnight grown bacterial cultures were diluted in saline to 0.5 McFarland turbidity, followed by 1:50 dilution in MHB (without SPRLP) and inoculation into each well to a final concentration of approximately 5×10^5 colony forming units/mL. Wells containing only MHB (without SPRLP) with or without bacterial cells were used as positive or negative control, respectively. The plate was then incubated at 37° C. for 18 hours and examined for visible turbidity, to which was confirmed using EMax Plus microplate reader (Molecular Devices, USA) at a wavelength of 590 nm. A 4-fold or more MIC reduction of antibiotic in the presence of 8 μg/mL (5 μM) SPRLP denoted a positive synergy result and was further validated by a checkerboard assay.
The assay was done on a 96-well plate as previously described (40, 41). The agent of interest was 2-fold serially diluted along the x-axis, while the adjuvant was 2-fold serially diluted along the y-axis to create a matrix in which each well consist of a combination of both at different concentrations.

[2] = tested on: P. aeruginosa 100036 (MDR/XDR); assay: microbe, parasite or virus in culture; details: P. aeruginosa 100036; for MIC (agent alone): antibiotic or lipopeptide alone
Description: as §1
(§4) Isolates used in this study were either obtained from the American Type Culture Collection (ATCC), the Canadian National Intensive Care Unit (CAN-ICU) surveillance study (27) or the Canadian Ward Surveillance (CANWARD) study (28). Clinical isolates belonging to the CAN-ICU and CANWARD studies were recovered from patients suffering a presumed infectious disease entering or admitted in a participating medical center across Canada during the time of study. MDR P. aeruginosa strains in this study refer to those that are resistant to aminoglycosides, fluoroquinolones, cephalosporins, and carbapenems while XDR strains are those that are resistant to aminoglycosides, fluoroquinolones, cephalosporins, carbapenems, aztreonam and penicillin+β-lactamase inhibitor combination (39, 40).
as §2
as §3, with “respectively.” for “respectively. The plate was then incubated at 37° C. for 18 hours and examined for visible turbidity, to which was confirmed using EMax Plus microplate reader (Molecular Devices, USA) at a wavelength of 590 nm. A 4-fold or more MIC reduction of antibiotic in the presence of 8 μg/mL (5 μM) SPRLP denoted a positive synergy result and was further validated by a checkerboard assay.”

[3] = tested on: P. aeruginosa 101885 (MDR/XDR); assay: microbe, parasite or virus in culture
Description: as §1, §4, §2
as §3, with “respectively.” for “respectively. The plate was then incubated at 37° C. for 18 hours and examined for visible turbidity, to which was confirmed using EMax Plus microplate reader (Molecular Devices, USA) at a wavelength of 590 nm. A 4-fold or more MIC reduction of antibiotic in the presence of 8 μg/mL (5 μM) SPRLP denoted a positive synergy result and was further validated by a checkerboard assay.”

[4] = tested on: P. aeruginosa 259-96918 (MDR/XDR); assay: microbe, parasite or virus in culture; details: P. aeruginosa 259-96918; for MIC (agent alone): antibiotic or lipopeptide alone
Description: as §1, §4, §2
as §3, with “respectively.” for “respectively. The plate was then incubated at 37° C. for 18 hours and examined for visible turbidity, to which was confirmed using EMax Plus microplate reader (Molecular Devices, USA) at a wavelength of 590 nm. A 4-fold or more MIC reduction of antibiotic in the presence of 8 μg/mL (5 μM) SPRLP denoted a positive synergy result and was further validated by a checkerboard assay.”

[5] = tested on: P. aeruginosa 264-104354 (MDR/XDR); assay: microbe, parasite or virus in culture; details: P. aeruginosa 264-104354; for MIC (agent alone): antibiotic or lipopeptide alone
Description: as §1, §4, §2
as §3, with “respectively.” for “respectively. The plate was then incubated at 37° C. for 18 hours and examined for visible turbidity, to which was confirmed using EMax Plus microplate reader (Molecular Devices, USA) at a wavelength of 590 nm. A 4-fold or more MIC reduction of antibiotic in the presence of 8 μg/mL (5 μM) SPRLP denoted a positive synergy result and was further validated by a checkerboard assay.”

[6] = tested on: P. aeruginosa 91433 (colistin-resistant, MDR/XDR); assay: microbe, parasite or virus in culture; details: P. aeruginosa 91433 (colistin-resistant); for MIC (agent alone): antibiotic or lipopeptide alone
Description: as §1, §4, §2
as §3, with “respectively.” for “respectively. The plate was then incubated at 37° C. for 18 hours and examined for visible turbidity, to which was confirmed using EMax Plus microplate reader (Molecular Devices, USA) at a wavelength of 590 nm. A 4-fold or more MIC reduction of antibiotic in the presence of 8 μg/mL (5 μM) SPRLP denoted a positive synergy result and was further validated by a checkerboard assay.”

[7] = tested on: wild-type and MDR/XDR P. aeruginosa clinical isolates; details: for interaction with minocycline (in words) / interaction with rifampicin (in words): checkerboard assay, P. aeruginosa; for MIC (lipopeptide alone): wild-type and clinical isolates of P. aeruginosa
[8] = P. aeruginosa PAO1, degree of minocycline potentiation in the presence of 8 μg/mL (5 μM) lipopeptide
[9] = P. aeruginosa PAO1, degree of rifampicin potentiation in the presence of 8 μg/mL (5 μM) lipopeptide
[10] = MIC of minocycline in the presence of 8 μg/mL (5 μM) lipopeptide
[11] = MIC of rifampicin in the presence of 8 μg/mL (5 μM) lipopeptide
[12] = degree of minocycline potentiation in the presence of 8 μg/mL (5 μM) lipopeptide
[13] = degree of rifampicin potentiation in the presence of 8 μg/mL (5 μM) lipopeptide
[14] = P. aeruginosa 101885, degree of minocycline potentiation in the presence of 8 μg/mL (5 μM) lipopeptide
[15] = P. aeruginosa 101885, degree of rifampicin potentiation in the presence of 8 μg/mL (5 μM) lipopeptide

SMILES | Potentiation [1, 8] | Potentiation [1, 9] | MIC (agent alone) [2] | Potentiation [2, 12] | Potentiation [2, 13] | Potentiation [3, 14] | Potentiation [3, 15] | MIC (agent alone) [4] | Potentiation [4, 12] | Potentiation [4, 13] | MIC (agent alone) [5] | Potentiation [5, 12] | Potentiation [5, 13] | MIC (agent alone) [6] | Potentiation [6, 12] | Potentiation [6, 13] | interaction with minocycline (in words) [7] | interaction with rifampicin (in words) [7] | MIC (lipopeptide alone) [7] | further results
CCCCCCCCCCCC(=O)N1CCC[C@@H]1C(=O)N[C@H](CCCNC(=N)N)C(=O)N1CCC[C@@H]1C(=O)N[C@H](CCCNC(=N)N)C(=O)N1CCC[C@@H]1C(=O)N[C@H](CCCNC(=N)N)C(=O)N1CCC[C@@H]1C(N)=O [C12-prp] (Lauroyl-[dP][dR][dP][dR][dP][dR][dP]-NH2) | 4-fold | 8-fold | >128 µg/mL | 2-fold | 4-fold | 2-fold | 4-fold | >128 µg/mL | 4-fold | 8-fold | >128 µg/mL | 8-fold | 4-fold | >128 µg/mL | 8-fold | 8-fold | potentiated | potentiated | > 128 µg/mL | Absolute MIC MIN ([1]; P. aeruginosa PAO1, MIC of minocycline in the presence of 8 μg/mL (5 μM) lipopeptide): 2 µg/mL; Absolute MIC RMP ([1]; P. aeruginosa PAO1, MIC of rifampicin in the presence of 8 μg/mL (5 μM) lipopeptide): 1 µg/mL; MIC (agent alone) ([1]; P. aeruginosa PAO1, antibiotic or lipopeptide alone): >128 µg/mL; Absolute MIC MIN [2, 10]: 8 µg/mL; Absolute MIC RMP [2, 11]: 4 µg/mL; Absolute MIC MIN ([3]; P. aeruginosa 101885, MIC of minocycline in the presence of 8 μg/mL (5 μM) lipopeptide): 8 µg/mL; Absolute MIC RMP ([3]; P. aeruginosa 101885, MIC of rifampicin in the presence of 8 μg/mL (5 μM) lipopeptide): 4 µg/mL; MIC (agent alone) ([3]; P. aeruginosa 101885, antibiotic or lipopeptide alone): >128 µg/mL; Absolute MIC MIN [4, 10]: 4 µg/mL; Absolute MIC RMP [4, 11]: 2 µg/mL; Absolute MIC MIN [5, 10]: 4 µg/mL; Absolute MIC RMP [5, 11]: 2 µg/mL; Absolute MIC MIN [6, 10]: 4 µg/mL; Absolute MIC RMP [6, 11]: 2 µg/mL
CCCCCCCCCCCC(=O)N1CCC[C@H]1C(=O)N[C@@H](CCCNC(=N)N)C(=O)N1CCC[C@H]1C(=O)N[C@@H](CCCNC(=N)N)C(=O)N1CCC[C@H]1C(=O)N[C@@H](CCCNC(=N)N)C(=O)N1CCC[C@H]1C(N)=O [Compound C12-PRP, CH3(CH2)10CO-PRPRPRP-NH2] (Lauroyl-PRPRPRP-NH2) | 8-fold | 8-fold | >128 µg/mL | 4-fold | 16-fold | 4-fold | 8-fold | >128 µg/mL | 8-fold | 8-fold | >128 µg/mL | 16-fold | 16-fold | >128 µg/mL | 4-fold | 16-fold | strongly synergistic | significant potentiation | inactive | MIC (agent alone) ([1]; PAO1): 128 µg/mL; MIC (agent alone) ([3]; 101885 (MDR/XDR)): 64 µg/mL; FIC index ([3]; P. aeruginosa 101885, lipopeptide in combination with minocycline (MIN)): 0.37; FIC index ([3]; P. aeruginosa 101885, lipopeptide in combination with rifampicin (RMP)): 0.25; strains in which MIC of rifampicin reached susceptibility breakpoint ([7]; 8 μg/mL (5 μM) lipopeptide, breakpoint ≤1 μg/mL (CLSI, Staphylococcus spp.)): five out of nine; strains in which MIC of minocycline was reduced below susceptibility breakpoint ([7]; 8 μg/mL (5 μM) lipopeptide, breakpoint ≤4 μg/mL (CLSI, Acinetobacter spp.)): seven out of nine
